Read-outs that look alike come from different tables or passages of the source.
Legend:
[1] = biological target: T1, BSA Site I / Site II (Bos taurus, UniProt P02769); assay: Site marker studies with phenylbutazone (Site I) and ibuprofen (Site II); format: binding, bovine
T1 construct: purchased Sigma-Aldrich (St. Louis, MO, USA)

[2] = test system: serum proteins; settings: humans; cited from earlier work
[3] = test system: serum proteins; settings: mice; cited from earlier work
[4] = test system: serum proteins; settings: rats; cited from earlier work
[5] = biological target: bovine serum albumin (BSA) (Bos taurus, UniProt P02769); assay: Fluorescence quenching of BSA by ligand (binary and ternary systems; Stern Volmer, double log and van't Hoff analysis); format: binding
Chain of bovine serum albumin (BSA) (P02769 25-607): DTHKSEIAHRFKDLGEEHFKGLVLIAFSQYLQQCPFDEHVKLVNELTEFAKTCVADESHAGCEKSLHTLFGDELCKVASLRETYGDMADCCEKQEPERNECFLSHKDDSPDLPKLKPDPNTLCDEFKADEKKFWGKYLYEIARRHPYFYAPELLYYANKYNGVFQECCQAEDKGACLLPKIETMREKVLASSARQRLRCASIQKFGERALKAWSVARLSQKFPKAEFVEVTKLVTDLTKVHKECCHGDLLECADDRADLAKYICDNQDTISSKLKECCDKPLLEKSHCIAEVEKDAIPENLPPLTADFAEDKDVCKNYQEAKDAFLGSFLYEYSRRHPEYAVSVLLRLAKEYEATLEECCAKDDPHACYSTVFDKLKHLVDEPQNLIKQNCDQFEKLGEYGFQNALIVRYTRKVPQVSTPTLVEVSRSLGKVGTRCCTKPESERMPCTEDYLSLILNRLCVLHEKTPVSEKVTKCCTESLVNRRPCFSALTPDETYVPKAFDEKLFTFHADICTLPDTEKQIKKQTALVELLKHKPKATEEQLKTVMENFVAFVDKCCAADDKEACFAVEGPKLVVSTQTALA
From the text: The spectrofluorometer FP-8200 (JASCO, Hachioji, Tokyo, Japan) was used to measure the fluorescence spectra. […] The inner filter effects were corrected for the reabsorption of emitted light using the equation [35]: Fcor=Fobs×e^(Aex+Aem)/2
Fcor and Fobs are the corrected and observed fluorescence in the above equation, respectively, and Aex and Aem are excitation and emission wavelengths absorbance values, respectively.
The fluorescence spectra for the protein BSA for the binary and the ternary system were recorded at 280 nm (excitation wavelength) and an emission wavelength of 300–500 nm (Figure 1a–c). […] (1) kq=Ksv/τ0 where F0 is BSA’s fluorescence intensity, and F is BSA’s fluorescence intensity in the presence of quencher. Stern Volmer constant is given as Ksv, and (Q) is quencher concentration. The kq biomolecular quenching constant and τ0 the lifetime of the fluorophore in the absence of quencher and is valued at 10^−8 s for biopolymers.
The binding constants and binding stoichiometry are were determined using a double logarithmic regression plot derived from the equation: log(F0−F)/F=log Kb+n log[Q] .

[6] = biological target: T1, BSA Site I / Site II; parameters: method as in PMID 28513070, PMID 34946608; settings: cited from earlier work

T1 sequence (P02769 25-607): as above

influence of phenylbutazone on quenching behavior and binding constant of BSA-ERL ([1]; Site I marker phenylbutazone) | binding constants of BSA-ERL in the presence and absence of ibuprofen ([1]; Site II marker ibuprofen) | binding site on BSA ([1]; site markers phenylbutazone and ibuprofen) | SMILES | binding to serum proteins [2] [%] | binding to serum proteins [3] [%] | binding to serum proteins [4] [%] | bimolecular quenching constant kq ([5]; binary system, 298 K, kq = Ksv/τ0, τ0 10^−8 s) | Stern Volmer constant Ksv ± SD ([5]; binary system, BSA 1.5 μM, 298 K) | further reduction of fluorescence intensity of the BSA-ERL system by presence of QUR ([5]; difference ternary vs binary system) [%] | binding site on BSA [6]
strongly influenced | similar | Site I | C#Cc1cccc(Nc2ncnc3cc(OCCOC)c(OCCOC)cc23)c1 [ERL, Erlotinib] | 92 | 95 | 92 | – | – | – | –
– | – | – | O=c1c(O)c(-c2ccc(O)c(O)c2)oc2cc(O)cc(O)c12 [QUR, Quercetin] | – | – | – | 46.07 × 10^12 M^−1S^−1 | 460,702 ± 1875 M^−1 | 26 | Site I
